# Data: patent US8822440B2, “Inhibiting cyclin D polypeptides” (Mayo Foundation for Medical Education and Research, priority 2006, dated 2014)
# Entries after “also recorded” stand apart in the source; their conditions may differ.
# What was measured:
# CCND2 promoter = assay: CCND2 promoter-luciferase transactivation assay in NIH3T3 cells with or without c-maf; assay type: cell-based, mouse
# Experimental: Using this assay, Lopac (n=1280), Prestwick (n=1120), and Spectrum (n=2000) libraries of drugs and natural compounds were screened. In a parallel MTS assay, the effect of each compound on 3T3 viability was determined, allowing exclusion of compounds that caused secondary suppression of CCND2 due to non-specific cytotoxicity. […] These included monensin, patulin, β-lapachone, camptothecin, dihydrogambogic acid, gentian violet, thapsigargin, brefeldin A, pristimerin, and kinetin riboside.
# Full-length c-maf cDNA was subcloned into an IRES-GFP MIEV retroviral vector and introduced into NIH3T3 cells by infection. Stable clones expressing GFP and c-maf were selected by flow cytometry and immunoblotting, respectively. The promoter of human cyclin D2 (−894 to −4; Brooks et al., J. Biol. Chem., 271, 9090-9 (1996)), containing c-maf responsive element sequence (MARE), was cloned from DNA from HeLa cells and inserted into the pGLbasic firefly luciferase vector (Promega, Madison, Wis.) immediately upstream of the luciferase gene. This construct was co-transfected with pcDNA3 (containing a neomycin resistance gene) into both NIH3T3 wild type cells and NIH3T3 cells stably over-expressing c-maf-IRES-GFP. Cells stably expressing c-maf, GFP, and luciferase were selected.
# NIH3T3 cells stably expressing c-maf and the CCND2 promoter driving luciferase (13,000 cells per well) were plated in 96-well plates by a Biomek FX liquid handler (Beckman, Fullerton, Calif.). After the cells had adhered, they were treated with aliquots of molecules from LOPAC (Sigma, St. Louis, Mo.), Prestwick (Prestwick Chemical Inc, Illkirch, France) or Spectrum (Microsource Discovery Systems, Gaylordsville, Conn.) libraries of off-patent drugs and chemicals at a final concentration of ˜5 μM and <0.1% DMSO. Cells were incubated with compounds at 37° C. for 16 hours.
# Luciferase assay. Luciferase activity was assessed according to the manufacturer's instructions (Promega, Madison, Wis.). Briefly, the cell culture medium was removed using an EMBLA plate washer (Molecular Devices, X) and Glo Lysis buffer (Promega) was added by robot. After a 10-minute incubation, an equal volume of Bright-Glo Luciferase substrate (Promega) was added, and luminescence signal was detected with a 96-well Luminoskan luminescence plate reader (Thermo Labsystem, Waltham, Mass.) using a 5 second integration.
# Studies of kinetin riboside using 3T3-D2-luc cells. To examine CCND2 suppression induced by kinetin riboside, the reporter cells were exposed to kinetin riboside in combination with other drugs (all purchased from Sigma, St. Loius, Mo.) that influence CCND2 transcription or inhibit nucleoside transport or phosphorylation. NIH3T3 cells expressing the CCND2 promoter driving luciferase were incubated with kinetin riboside or vehicle control +/− forskolin, 4-(3-butoxy-4-methoxybenzyl)imidazolidin-2-one (BMBI), cantharadin, S-(4-Nitrobenzyl)-6-thioinosine (NBTI), or A-134974, as specified at 5 μM concentration for 16 hours at 37° C. […] Forskolin is a cell-permeable diterpenoid that activates adenylate cyclase resulting in increased cAMP concentration. BMBI (Sigma B8279) is an inhibitor of cAMP phosphodiesterase that also causes accumulation of cAMP. Cantharadin (C7632) is an inhibitor of protein phosphatase 2A and, from the library screen, mediates induction of CCND2. NBTI (Sigma N2255) is a potent adenosine uptake inhibitor, and A-134974 (Sigma A2846) is a selective inhibitor of adenosine kinase.
# In an optimized automated assay, NIH3T3 cells over-expressing c-maf and the human cyclin D2 promoter driving luc were plated in 96-well plates by robot and following adhesion were treated for 16 hours with compounds at a final concentration of ˜5 μM and <0.1% DMSO. As a control, cells were treated with buffer alone. […] Thus, each compound from the library was tested in at least two assays—luciferase for CCND2 activity and MTS for viability. The coefficient of variance (CV) of the assay was <10%.
# cyclin D1, cyclin D2 = assay: Immunoblot of cyclin D proteins in purified patient CD138+ myeloma cells; assay type: cell-based, human
# Experimental: Primary CD138^+ myeloma cell purification. Samples from patients diagnosed by International Myeloma Working Group criteria were included in this study. Bone marrow processing, including red cell lysis using ammonium chloride and CD138^+ plasma cell purification, was performed as described elsewhere (Abraham et al., Blood, 105, 794-803 (2005)). Research BM samples were obtained following informed consent at the time of routine procurement of clinical samples.
# Immunoblotting. Cytosolic extracts were prepared from HMCL or purified patient CD138^+ myeloma cells following exposure to kinetin riboside. Cells were washed with cold PBS, resuspended in cold RIPA buffer (5×10^6 cells/100 μL) containing fresh protease and phosphatase inhibitors (Santa Cruz Biotechnology, Santa Cruz, Calif.) and incubated on ice for 30 minutes with gentle mixing. The supernatant was repossessed following high speed centrifugation, and protein concentrations were determined by the Bradford assay. Immunoblot assays were performed as described elsewhere (Krajewski et al., Anal. Biochem., 236:221-228 (1996)). Briefly, equal amounts of protein were separated by SDS-PAGE and transferred to a PVDF nitrocellulose membrane using a semi-dry apparatus. […]
# Aqueous solubility = assay type: physicochemical
# [1] = test system: CD138− hematopoietic cells; assay: Unsorted myeloma patient bone marrow, flow cytometry: CD138- non-malignant cells; assay type: cell-based
# Experimental: Flow cytometry. HMCL were treated as indicated and then washed in cold phosphate-buffered saline (PBS) and resuspended in buffer containing AnnexinV-FITC and propidium iodide (BD Biosciences, San Jose, Calif.) for 15 minutes at room temperature. Cells (10^5) were subsequently diluted and analyzed immediately by flow cytometry (FACScan, BD Biosciences, San Jose, Calif.) using CellQuest software. Patient bone marrow specimens were prepared and analyzed in a similar fashion using AnnexinV-FITC and anti-CD138-PE (BD Biosciences, San Jose, Calif.).
# As mouse embryos that lack any D-cyclins eventually die from hematopoietic failure (Kozar et al., Cell, 118, 477-91 (2004)), the bone marrow might be predicted to be one of the most sensitive non-malignant tissue to be affected by drugs targeting cyclin D expression. Unsorted bone marrow samples from myeloma patients were treated with kinetin riboside to assess the relative cytotoxicity of this drug on malignant versus non-malignant marrow cells. Bone marrow samples were first processed to remove non-nucleated red cells and were then treated for 48 hours with kinetin riboside (5 μM).
compound,measurement,setting,value
"OC[C@H]1O[C@@H](n2cnc3c(NCc4ccco4)ncnc32)[C@H](O)[C@@H]1O [kinetin riboside, N6-Furfuryladenosine]",time course of suppression of CCND2-driven luciferase,CCND2 promoter; NIH3T3,rapid suppression of CCND2 transactivation
same,suppression of CCND2 promoter in absence or presence of c-maf,CCND2 promoter; NIH3T3 CCND2-luc with or without c-maf,c-maf independent specific suppression of the CCND2 promoter
same,effect on BMBI-induced CCND2 transactivation,"CCND2 promoter; co-incubation, 5 μM, 16 hours",effectively blocked
same,effect on Forskolin-induced CCND2 transactivation,"CCND2 promoter; co-incubation, 5 μM, 16 hours",blocked
same,effect on cantharadin-induced CCND2 transactivation,"CCND2 promoter; co-incubation, 5 μM, 16 hours",abolished
same,identified as putative inhibitor of CCND2 transactivation (screen hit),"CCND2 promoter; ~5 μM, 16 hours, hit = 50% or more reduction in luciferase relative to cell viability",putative CCND2 inhibitors; also recorded: putative suppressors of CCND2
same,patient samples with suppression of cyclin D1 or D2,"cyclin D1, cyclin D2; 10 μM, 16 hours",4 of 5
same,cyclin D1 and D2 levels in sample E (plasma cell leukemia),"cyclin D1, cyclin D2; patient E",unaffected
same,aqueous solubility,Aqueous solubility,limited aqueous solubility at high concentration
same,toxicity in CD138− bone marrow progenitor compartment,[1],only modest toxicity
same,effect on non-malignant CD138− marrow cells,"[1]; human, 48 h, 5 μM",leaving the majority of non-malignant CD138− marrow cells intact
